Measurements reported in patent US8192962B2, “Processes for detecting toxic substances” (Daikin Industries, Ltd., priority 2001, dated 2012).

Test system: Unknown protein yeast genes
Experiment: DNA chip mRNA expression in yeast, unknown protein yeast genes (Table 1)
Assay type: cell-based, Saccharomyces cerevisiae S288C
Summary of the method: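 Expression change after 2 h toxicant exposure (growth-inhibiting, sub-lethal) of log-phase S. cerevisiae S288C at 25° C. Oligo-dT-purified mRNA was labeled with Cy3-dUTP or Cy5-dUTP and hybridized >12 h at 65° C. to a genome-wide chip; ratio of scanned fluorescence to control.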

Measured: The level of expressed mRNA in the presence of chemical substance/The level of expressed mRNA in the absence of chemical substance

manganese ethylenebis(dithiocarbamate) [(8)]
1.3: yeast gene YKR091W, incubated two hours with chemical substance | yeast gene YMR107W, incubated two hours with chemical substance | yeast gene YNL234W, incubated two hours with chemical substance | yeast gene YOL083W, incubated two hours with chemical substance
3.0: yeast gene YGL121C
0.7: yeast gene YDL222C, incubated two hours with chemical substance | yeast gene YGL199C, incubated two hours with chemical substance | yeast gene YIL023C, incubated two hours with chemical substance | yeast gene YJL152W, incubated two hours with chemical substance | yeast gene YKL153W, incubated two hours with chemical substance | yeast gene YML117W, incubated two hours with chemical substance | yeast gene YNL305C, incubated two hours with chemical substance | yeast gene YPL222W, incubated two hours with chemical substance
1.4: yeast gene YER079W, incubated two hours with chemical substance | yeast gene YER163C, incubated two hours with chemical substance | yeast gene YHR138C, incubated two hours with chemical substance | yeast gene YJL161W, incubated two hours with chemical substance | yeast gene YLR387C, incubated two hours with chemical substance | yeast gene YMR009W, incubated two hours with chemical substance | yeast gene YPR151C, incubated two hours with chemical substance
0.9: yeast gene YDR411C, incubated two hours with chemical substance | yeast gene YER158C, incubated two hours with chemical substance | yeast gene YFL024C | yeast gene YGR130C, incubated two hours with chemical substance | yeast gene YIL041W, incubated two hours with chemical substance | yeast gene YJL082W, incubated two hours with chemical substance | yeast gene YJL171C, incubated two hours with chemical substance | yeast gene YNL092W, incubated two hours with chemical substance | yeast gene YOR197W, incubated two hours with chemical substance | yeast gene YPR023C, incubated two hours with chemical substance
1.7: yeast gene YDR511W, incubated two hours with chemical substance | yeast gene YGR154C, incubated two hours with chemical substance
3.7: yeast gene YOL150C
0.8: yeast gene YAL053W, incubated two hours with chemical substance | yeast gene YDL072C, incubated two hours with chemical substance | yeast gene YGR101W, incubated two hours with chemical substance | yeast gene YJL066C, incubated two hours with chemical substance | yeast gene YJL151C, incubated two hours with chemical substance | yeast gene YNL115C, incubated two hours with chemical substance | yeast gene YOL036W, incubated two hours with chemical substance
8.1: yeast gene YLR460C
24.7: yeast gene YKL071W
1.6: yeast gene YJR054W, incubated two hours with chemical substance | yeast gene YMR316W, incubated two hours with chemical substance | yeast gene YOL071W, incubated two hours with chemical substance | yeast gene YOL162W, incubated two hours with chemical substance
1.8: yeast gene YMR180C, incubated two hours with chemical substance | yeast gene YNL044W, incubated two hours with chemical substance
0.6: yeast gene YDR545W, incubated two hours with chemical substance | yeast gene YNL074C, incubated two hours with chemical substance
1.5: yeast gene YGR110W | yeast gene YJL057C, incubated two hours with chemical substance | yeast gene YMR097C, incubated two hours with chemical substance | yeast gene YOL032W, incubated two hours with chemical substance
1.9: yeast gene YBL107C | yeast gene YMR184W, incubated two hours with chemical substance
1.0: yeast gene YFL006W, incubated two hours with chemical substance | yeast gene YFL010C, incubated two hours with chemical substance | yeast gene YHR199C, incubated two hours with chemical substance | yeast gene YKL151C, incubated two hours with chemical substance | yeast gene YLR194C, incubated two hours with chemical substance | yeast gene YLR324W, incubated two hours with chemical substance | yeast gene YLR350W, incubated two hours with chemical substance | yeast gene YMR102C, incubated two hours with chemical substance | yeast gene YMR295C, incubated two hours with chemical substance | yeast gene YPL087W, incubated two hours with chemical substance | yeast gene YPL206C, incubated two hours with chemical substance
1.1: yeast gene YDL204W, incubated two hours with chemical substance | yeast gene YDR330W, incubated two hours with chemical substance | yeast gene YER004W, incubated two hours with chemical substance | yeast gene YER175C, incubated two hours with chemical substance | yeast gene YGL047W, incubated two hours with chemical substance | yeast gene YGR221C, incubated two hours with chemical substance | yeast gene YIL087C, incubated two hours with chemical substance | yeast gene YJR008W, incubated two hours with chemical substance | yeast gene YKL086W, incubated two hours with chemical substance | yeast gene YLR054C, incubated two hours with chemical substance | yeast gene YLR149C, incubated two hours with chemical substance | yeast gene YMR067C, incubated two hours with chemical substance | yeast gene YMR191W, incubated two hours with chemical substance | yeast gene YNR068C, incubated two hours with chemical substance | yeast gene YOL047C, incubated two hours with chemical substance | yeast gene YOL082W, incubated two hours with chemical substance | yeast gene YOL117W, incubated two hours with chemical substance | yeast gene YOL131W, incubated two hours with chemical substance | yeast gene YOR019W, incubated two hours with chemical substance
1.2: yeast gene YBL048W | yeast gene YEL001C, incubated two hours with chemical substance | yeast gene YER035W, incubated two hours with chemical substance | yeast gene YER106W, incubated two hours with chemical substance | yeast gene YGL037C, incubated two hours with chemical substance | yeast gene YGL053W, incubated two hours with chemical substance | yeast gene YKL195W, incubated two hours with chemical substance | yeast gene YLR152C, incubated two hours with chemical substance | yeast gene YMR095C, incubated two hours with chemical substance | yeast gene YNL156C, incubated two hours with chemical substance | yeast gene YNL281W, incubated two hours with chemical substance | yeast gene YPL196W, incubated two hours with chemical substance
3.9: yeast gene YMR090W
0.4: yeast gene YFL032W, incubated two hours with chemical substance
